Experimental data: patent US10988477B2 (Merck Patent GmbH, priority 2018, dated 2021)

Experiments:
GCN2 kinase = GCN2 kinase (Homo sapiens, UniProt Q9P2K8); test: GCN2 enzyme inhibition assay (Transcreener ADP2 fluorescence polarization); assay type: biochemical; conditions: compounds of Formula II; 280 μM ATP, 4 nM GCN2 kinase
Summary of the method: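 Run at 25 °C in 25 mM Tris-HCl pH 7.5, 50 mM NaCl, 10 mM MgCl2, 1 mM DTT with 4 nM GCN2, 280 μM ATP and 200 μM (RS)7 peptide; compound (0–8 μM final) preincubated 10 min, reaction 1 h. ADP read by antibody/tracer FP; IC50 and Ki(app) from tight-binding fit.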

[1] = molecular target: intracellular GCN2 (phosphorylation of the GCN2 substrate eIF2α) (Homo sapiens, UniProt Q9P2K8); test: GCN2 cellular inhibition assay (AlphaScreen SureFire P-eIF2α Ser51, borrelidin-treated U2OS cells); assay type: cell-based; conditions: compounds of Formula II; biomarker assay, phosphorylated eIF2α Ser51 in borrelidin-treated U2OS cells
Sequence of intracellular GCN2 (phosphorylation of the GCN2 substrate eIF2α) (Q9P2K8 whole entry): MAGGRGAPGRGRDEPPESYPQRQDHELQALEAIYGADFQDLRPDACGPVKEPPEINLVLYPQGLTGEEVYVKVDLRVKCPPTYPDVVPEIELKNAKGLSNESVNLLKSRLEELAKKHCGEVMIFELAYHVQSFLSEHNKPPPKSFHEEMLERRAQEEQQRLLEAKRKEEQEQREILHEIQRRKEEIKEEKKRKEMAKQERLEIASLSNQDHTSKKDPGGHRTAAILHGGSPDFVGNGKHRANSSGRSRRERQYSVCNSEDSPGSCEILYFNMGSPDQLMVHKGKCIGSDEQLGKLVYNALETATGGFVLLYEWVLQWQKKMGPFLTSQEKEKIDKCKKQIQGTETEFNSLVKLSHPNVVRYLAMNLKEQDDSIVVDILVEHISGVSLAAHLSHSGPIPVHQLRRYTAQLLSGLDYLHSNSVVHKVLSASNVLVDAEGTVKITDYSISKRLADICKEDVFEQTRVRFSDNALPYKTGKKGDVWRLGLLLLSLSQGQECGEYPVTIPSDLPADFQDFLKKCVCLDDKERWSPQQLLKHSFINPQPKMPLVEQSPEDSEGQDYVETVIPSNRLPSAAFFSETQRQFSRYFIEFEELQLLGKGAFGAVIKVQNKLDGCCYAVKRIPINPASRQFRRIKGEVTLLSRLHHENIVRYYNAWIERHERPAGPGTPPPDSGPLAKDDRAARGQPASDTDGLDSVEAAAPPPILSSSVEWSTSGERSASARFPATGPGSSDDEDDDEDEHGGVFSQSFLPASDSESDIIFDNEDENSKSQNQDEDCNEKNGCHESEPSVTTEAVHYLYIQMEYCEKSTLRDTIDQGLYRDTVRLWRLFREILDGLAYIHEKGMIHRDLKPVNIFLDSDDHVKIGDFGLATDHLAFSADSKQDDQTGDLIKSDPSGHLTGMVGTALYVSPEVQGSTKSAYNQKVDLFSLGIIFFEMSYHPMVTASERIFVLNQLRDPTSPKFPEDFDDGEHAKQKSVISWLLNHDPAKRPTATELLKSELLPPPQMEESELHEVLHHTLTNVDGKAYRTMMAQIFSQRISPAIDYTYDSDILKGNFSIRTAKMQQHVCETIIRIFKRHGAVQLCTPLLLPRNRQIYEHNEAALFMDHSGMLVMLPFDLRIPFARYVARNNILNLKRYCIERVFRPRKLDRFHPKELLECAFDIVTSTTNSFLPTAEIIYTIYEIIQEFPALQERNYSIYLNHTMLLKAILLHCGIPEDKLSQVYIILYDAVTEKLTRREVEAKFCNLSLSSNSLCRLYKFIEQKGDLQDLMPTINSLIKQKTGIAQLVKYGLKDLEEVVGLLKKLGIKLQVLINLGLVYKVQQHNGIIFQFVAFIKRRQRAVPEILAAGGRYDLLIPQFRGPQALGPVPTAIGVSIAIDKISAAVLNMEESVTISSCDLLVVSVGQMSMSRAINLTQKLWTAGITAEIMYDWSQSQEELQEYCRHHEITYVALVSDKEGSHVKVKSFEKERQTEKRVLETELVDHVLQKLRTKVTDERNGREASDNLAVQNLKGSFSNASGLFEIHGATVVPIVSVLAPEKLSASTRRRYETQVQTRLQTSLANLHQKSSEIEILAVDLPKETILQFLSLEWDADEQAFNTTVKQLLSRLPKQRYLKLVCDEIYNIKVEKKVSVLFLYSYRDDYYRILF
Summary of the method: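 First, U2OS cells are plated and left overnight at 37 °C. Next, compounds (from 40 μM final, 4-fold steps) and 10 μM borrelidin are added for 1 h, cells lysed, and phospho-Ser51 eIF2α detected by AlphaScreen bead sandwich. Inhibition is computed versus borrelidin-only wells.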

Sequence of GCN2 kinase (Q9P2K8 whole entry): as above

| Ki (GCN2 kinase) [nM] | IC50 [1] [nM] | SMILES |
| --- | --- | --- |
| 10 to 1000 | 500 to 5000 | CS(=O)(=O)NCC1CN(c2cc(-c3cnc4ccc(C(F)F)nn34)ncn2)CCN1 (stereo not shown) [II-450, N-((4-(6-(6-(Difluoromethyl)imidazo[1,2-b]pyridazin-3-yl)pyrimidin-4-yl)piperazin-2-yl)methyl)methanesulfonamide] |
| 10 to 1000 | 500 to 5000 | FC(F)c1ccc2ncc(-c3cc(N4CC5CC(C4)O5)ncn3)n2n1 [II-451, 3-(6-(6-(Difluoromethyl)imidazo[1,2-b]pyridazin-3-yl)pyrimidin-4-yl)-6-oxa-3-azabicyclo[3.1.1]heptane] |
| 10 to 1000 | 500 to 5000 | CN1CCN(c2cc(-c3cnc4ccc(C(F)F)nn34)ncn2)CC12CN(S(C)(=O)=O)C2 [II-452, 8-(6-(6-(Difluoromethyl)imidazo[1,2-b]pyridazin-3-yl)pyrimidin-4-yl)-5-methyl-2-(methylsulfonyl)-2,5,8-triazaspiro[3.5]nonane] |
| 10 to 1000 | > 5000 | CN1CCN(c2cc(-c3cnc4ccc(C(F)F)nn34)ncn2)CC1C(N)=O (stereo not shown) [II-453, 4-(6-(6-(Difluoromethyl)imidazo[1,2-b]pyridazin-3-yl)pyrimidin-4-yl)-1-methylpiperazine-2-carboxamide] |
| 10 to 1000 | > 5000 | OC1([C@@H]2CN(c3cc(-c4cnc5ccc(C(F)F)nn45)ncn3)CCN2)CC1 [II-454, (S)-1-(4-(6-(6-(Difluoromethyl)imidazo[1,2-b]pyridazin-3-yl)pyrimidin-4-yl)piperazin-2-yl)cyclopropan-1-ol] |
| 10 to 1000 | 500 to 5000 | CN(C1CCCN(c2cc(-c3cnc4ccc(C(F)F)nn34)ncn2)C1)S(C)(=O)=O (stereo not shown) [II-455, N-(1-(6-(6-(Difluoromethyl)imidazo[1,2-b]pyridazin-3-yl)pyrimidin-4-yl)piperidin-3-yl)-N-methylmethanesulfonamide] |
| 10 to 1000 | < 500 | CN(C)CC(=O)N(CC1CCCN(c2cc(-c3cnc4ccc(C(F)F)nn34)ncn2)C1)S(C)(=O)=O (stereo not shown) [II-456, N-((1-(6-(6-(Difluoromethyl)imidazo[1,2-b]pyridazin-3-yl)pyrimidin-4-yl)piperidin-3-yl)methyl)-2-(dimethylamino)-N-(methylsulfonyl)acetamide] |
| 10 to 1000 | 500 to 5000 | CC1(C)COC(CNS(C)(=O)=O)CN1c1cc(-c2cnc3ccc(C(F)F)nn23)ncn1 (stereo not shown) [II-457, N-((4-(6-(6-(Difluoromethyl)imidazo[1,2-b]pyridazin-3-yl)pyrimidin-4-yl)-5,5-dimethylmorpholin-2-yl)methyl)methanesulfonamide] |
| > 1000 | > 5000 | CN1CCN(c2cc(-c3cnc4ccc(C(F)F)nn34)ncn2)C[C@H]1C1(O)CC1 [II-459, (S)-1-(4-(6-(6-(Difluoromethyl)imidazo[1,2-b]pyridazin-3-yl)pyrimidin-4-yl)-1-methylpiperazin-2-yl)cyclopropan-1-ol] |
| 10 to 1000 | > 5000 | CS(=O)(=O)NC(=O)C1CCCN(c2cc(-c3cnc4ccc(C(F)F)nn34)ncn2)C1 (stereo not shown) [II-460, 1-(6-(6-(Difluoromethyl)imidazo[1,2-b]pyridazin-3-yl)pyrimidin-4-yl)-N-(methylsulfonyl)piperidine-3-carboxamide] |
| < 10 | 500 to 5000 | CC1C(CNS(C)(=O)=O)C(F)(F)C(C)CN1c1cc(-c2cnc3ccc(C(F)F)nn23)ncn1 (stereo not shown) [II-461, N-((1-(6-(6-(Difluoromethyl)imidazo[1,2-b]pyridazin-3-yl)pyrimidin-4-yl)-4,4-difluoro-2,5-dimethylpiperidin-3-yl)methyl)methanesulfonamide] |

Further lines, the molecule ahead of its results:

| SMILES | Ki (GCN2 kinase) [nM] | IC50 [1] [nM] |
| --- | --- | --- |
| CS(=O)(=O)CC1CCCN(c2cc(-c3cnc4ccc(C(F)F)nn34)ncn2)C1 (stereo not shown) [II-430, 6-(Difluoromethyl)-3-(6-(3-((methylsulfonyl)methyl)piperidin-1-yl)pyrimidin-4-yl)imidazo[1,2-b]pyridazine] | 10 to 1000 | 500 to 5000 |
| CC1C(CNS(C)(=O)=O)C(F)(F)CCN1c1cc(-c2cnc3ccc(C(F)F)nn23)ncn1 (stereo not shown) [II-431, N-((1-(6-(6-(Difluoromethyl)imidazo[1,2-b]pyridazin-3-yl)pyrimidin-4-yl)-4,4-difluoro-2-methylpiperidin-3-yl)methyl)methanesulfonamide] | < 10 | < 500 |
| CC1C(CNS(C)(=O)=O)C(F)(F)CCN1c1cc(-c2cnc3ccc(C(F)F)nn23)ncn1 (stereo not shown) [II-432, N-((1-(6-(6-(Difluoromethyl)imidazo[1,2-b]pyridazin-3-yl)pyrimidin-4-yl)-4,4-difluoro-2-methylpiperidin-3-yl)methyl)methanesulfonamide] | < 10 | < 500 |
| CC1CC(F)(F)C(CNS(C)(=O)=O)CN1c1cc(-c2cnc3ccc(C(F)F)nn23)ncn1 (stereo not shown) [II-433, N-((1-(6-(6-(Difluoromethyl)imidazo[1,2-b]pyridazin-3-yl)pyrimidin-4-yl)-4,4-difluoro-6-methylpiperidin-3-yl)methyl)methanesulfonamide] | < 10 | < 500 |
| CC1CC(F)(F)C(CNS(C)(=O)=O)CN1c1cc(-c2cnc3ccc(C(F)F)nn23)ncn1 (stereo not shown) [II-434, N-((1-(6-(6-(Difluoromethyl)imidazo[1,2-b]pyridazin-3-yl)pyrimidin-4-yl)-4,4-difluoro-6-methylpiperidin-3-yl)methyl)methanesulfonamide] | 10 to 1000 | > 5000 |
| O=S(=O)(N[C@H]1CCCN(c2cc(-c3cnc4ccc(C(F)F)nn34)ncn2)C1)C1CNC1 [II-435, (S)—N-(1-(6-(6-(Difluoromethyl)imidazo[1,2-b]pyridazin-3-yl)pyrimidin-4-yl)piperidin-3-yl)azetidine-3-sulfonamide] | 10 to 1000 | > 5000 |
| OCC12CC1CN(c1cc(-c3cnc4ccc(C(F)F)nn34)ncn1)C2 (stereo not shown) [II-438, (3-(6-(6-(Difluoromethyl)imidazo[1,2-b]pyridazin-3-yl)pyrimidin-4-yl)-3-azabicyclo[3.1.0]hexan-1-yl)methanol] | 10 to 1000 | 500 to 5000 |
| CS(=O)(=O)NC1(C2CCN(c3cc(-c4cnc5ccc(C(F)F)nn45)ncn3)C2)CC1 (stereo not shown) [II-439, N-(1-(1-(6-(6-(Difluoromethyl)imidazo[1,2-b]pyridazin-3-yl)pyrimidin-4-yl)pyrrolidin-3-yl)cyclopropyl)methanesulfonamide] | 10 to 1000 | 500 to 5000 |
| CS(=O)(=O)NCC1CN(c2cc(-c3cnc4ccc(C(F)F)nn34)ncn2)CC(C2CC2)O1 (stereo not shown) [II-440, N-((6-Cyclopropyl-4-(6-(6-(difluoromethyl)imidazo[1,2-b]pyridazin-3-yl)pyrimidin-4-yl)morpholin-2-yl)methyl)methanesulfonamide] | 10 to 1000 | 500 to 5000 |
| CS(=O)(=O)NCC1CN(c2cc(-c3cnc4ccc(C(F)F)nn34)ncn2)CC(C2CC2)O1 (stereo not shown) [II-441, N-((6-Cyclopropyl-4-(6-(6-(difluoromethyl)imidazo[1,2-b]pyridazin-3-yl)pyrimidin-4-yl)morpholin-2-yl)methyl)methanesulfonamide] | 10 to 1000 | 500 to 5000 |
| O=S(=O)(N[C@H]1CCCN(c2cc(-c3cnc4ccc(C(F)F)nn34)ncn2)C1)C1CC1 [II-442, (S)—N-(1-(6-(6-(Difluoromethyl)imidazo[1,2-b]pyridazin-3-yl)pyrimidin-4-yl)piperidin-3-yl)cyclopropanesulfonamide] | 10 to 1000 | > 5000 |
| CS(=O)(=O)NCC1CN(c2cc(-c3cnc4ccc(C(F)F)nn34)ncn2)CC(C2CC2)O1 (stereo not shown) [II-443, N-((6-Cyclopropyl-4-(6-(6-(difluoromethyl)imidazo[1,2-b]pyridazin-3-yl)pyrimidin-4-yl)morpholin-2-yl)methyl)methanesulfonamide] | < 10 | < 500 |
| CS(=O)(=O)NCC1CN(c2cc(-c3cnc4ccc(C(F)F)nn34)ncn2)CC(C2CC2)O1 (stereo not shown) [II-444, N-((6-Cyclopropyl-4-(6-(6-(difluoromethyl)imidazo[1,2-b]pyridazin-3-yl)pyrimidin-4-yl)morpholin-2-yl)methyl)methanesulfonamide] | < 10 | < 500 |
| CC1(NS(C)(=O)=O)CCCN(c2cc(-c3cnc4ccc(C(F)F)nn34)ncn2)C1 (stereo not shown) [II-445, N-(1-(6-(6-(Difluoromethyl)imidazo[1,2-b]pyridazin-3-yl)pyrimidin-4-yl)-3-methylpiperidin-3-yl)methanesulfonamide] | 10 to 1000 | > 5000 |
| CC1(NS(C)(=O)=O)CCCN(c2cc(-c3cnc4ccc(C(F)F)nn34)ncn2)C1 (stereo not shown) [II-446, N-(1-(6-(6-(Difluoromethyl)imidazo[1,2-b]pyridazin-3-yl)pyrimidin-4-yl)-3-methylpiperidin-3-yl)methanesulfonamide] | 10 to 1000 | > 5000 |
| CS(=O)(=O)NCC12CC1CN(c1cc(-c3cnc4ccc(C(F)F)nn34)ncn1)C2 (stereo not shown) [II-447, N-((3-(6-(6-(Difluoromethyl)imidazo[1,2-b]pyridazin-3-yl)pyrimidin-4-yl)-3-azabicyclo[3.1.0]hexan-1-yl)methyl)methanesulfonamide] | 10 to 1000 | 500 to 5000 |
| CC1C(CNS(C)(=O)=O)N(C)C(C)CN1c1cc(-c2cnc3ccc(C(F)F)nn23)ncn1 (stereo not shown) [II-448, N-((4-(6-(6-(Difluoromethyl)imidazo[1,2-b]pyridazin-3-yl)pyrimidin-4-yl)-1,3,6-trimethylpiperazin-2-yl)methyl)methanesulfonamide] | < 10 | < 500 |
| C[C@@H]1C[C@H](NS(C)(=O)=O)CN(c2cc(-c3cnc4ccc(C(F)F)nn34)ncn2)C1 [II-449, N-((3S,5R)-1-(6-(6-(Difluoromethyl)imidazo[1,2-b]pyridazin-3-yl)pyrimidin-4-yl)-5-methylpiperidin-3-yl)methanesulfonamide] | < 10 | < 500 |
